The source of these data is US20100184807A1, “Methods to inhibit tumor cell growth by using proton pump inhibitors” (Bio-Quant, Inc., priority 2008, published 2010).

What all share (assay): MTT tumor cell growth assay
Common to all, as to type: cell-based

The subject of assay [1] is GDM-1 (leukemia). The method, then:
(§1) In one study, adherent cells were plated approximately 16-24 hours before the day of the experiment in 180 μl growth media. On the day of the experiment, the plated adherent cells were analyzed and counted and suspension cells were plated in 180 μl growth media. 10× lansoprazole compounds and vehicle was prepared. The 10× lansoprazole compounds were prepared by diluting lansoprazole to final concentrations of 100 μM, 30 μM, 10 μM, 3 μM, and 1 μM. A vehicle was prepared by preparing a solution of PBS, equivalent to the volume used for 10 μM lansoprazole wherein the 1× solution constitutes ˜0.06% PBS. 10 μl of the various 10× lansoprazole solutions and the vehicle were added to the cells. The cells were incubated at 37° C., 5% CO2 for 48 hours. The media was then aspirated. The cell suspension was then spun at 1500 RPM for 10 minutes. The media was slowly removed. 200 μl of MTT solution was added to each well with a concentration of 0.863 mg/ml MTT in the growth media. The cells were incubated at 37° C., 5% CO2 for 4 hours and the medium is then aspirated. The plate containing the cell suspension was then spun at 1500 RPM for 10 minutes. The media was slowly removed using a multichannel pipettor. 100 μl of DMSO was then added to each well. The cells were incubated at 37° C., 5% CO2 for 5 minutes and the absorbance was obtained at 560 nm using a Dynex Opsys MR plate reader. The cells used for this procedure were the following cell lines: IGROV1 (ovarian cancer); OVCAR 8 (ovarian cancer); ES-2 (ovarian cancer); CAOV3 (ovarian cancer); OVCAR5 (ovarian cancer); SUDHL4 (lymphoma); RPMI8226 (myeloma); RPMI6666 (Hodgkin's lymphoma); NC37 (lymphoma); GDM-1 (leukemia); MC/CAR (prostate cancer); DU-145 (prostate cancer), J45-01 (leukemia), MOLT3 (leukemia), HUT78, J-gamma-1 (leukemia), MCF7 […], COL0205 (colon cancer), HL60 CLONE 15 (leukemia), T47D (breast cancer), P116 (intestinal cancer), KU812 (leukemia), SW620 (colon cancer), MK92-M1 (lymphoma), MV-4-11 (leukemia), HS578T (breast cancer), HT29 (colon cancer), HCT 116 (colon cancer), CAKI-1 (kidney cancer), A549 (lung cancer), H460 (lung cancer), A3 (colon cancer), MDA-MB231 […], MALME 3M (melanoma), RXF393 (kidney cancer), RS4.11 (leukemia), PC3 (prostate cancer), OVCAR3 (ovarian cancer), MDA-MB435 (melanoma), HUT102 (lymphoma), HL60 (leukemia), CCRF-CEM (leukemia), HUT78 (lymphoma), 786-O (kidney cancer), ACHN (kidney cancer), A498 (kidney cancer), H226 (lung cancer), H522 (lung cancer), HOP92 (lung cancer), SNB 19 (brain cancer), OVCAR4 (ovarian cancer), H9 (lymphoma), UO-31 (kidney cancer), HH (lymphoma), DAUDI (leukemia), LOXIMVI (melanoma), NAMALWA (lymphoma), EKVX (lung cancer), DOHH2 (lymphoma), SNB75 (brain cancer), SKMEL28 (melanoma), SKMEL5 (melanoma), SKMEL2 (melanoma), M14 (melanoma), UACC 257 (melanoma), H332M (lung cancer), KM12 (colon cancer), HCC2998 (colon cancer), G401 (kidney cancer), RS1184 (lymphoma), MC116 (leukemia), MOLT4 (leukemia), JM1 (liver cancer), HOP-62 (lung cancer), HCT-15 (colon cancer), SF-539 (brain cancer), SF295 (brain cancer), ST486 (lymphoma), U251 (brain cancer), and UACC-62 (melanoma).
(§2) Experiments, as described in Example I were conducted with lansoprazole, omeprazole and SCH 28080 at concentrations of 1 μM, 10 μM, and 100 μM. FIGS. 3A-3K show the experimental results when tumor cells from the following cell lines were treated with lansoprazole, omeprazole, and SCH 28080: IGROV1 (FIG. 3A), OVCAR8 (FIG. 3B), ES-2 (FIG. 3C), CAOV3 (FIG. 3D), OVCAR5 (FIG. 3E), SUDHL4 (FIG. 3F), RPMI8226 (FIG. 3G), RPMI6666 (FIG. 3H), NC37 (FIG. 3I), GDM-1 (FIG. 3J), and MC/CAR (FIG. 3K).

The test system of assay [2] is RPMI8226 (myeloma). The method, then: as §1, §2
Assay [3] concerns RPMI6666 (Hodgkin's lymphoma). The method, then:
as §1, §2

Assay [4] concerns SUDHL4 (lymphoma). As for the experimental part: as §1, §2
The subject of assay [5] is MC/CAR (prostate cancer). The method, then: as §1, §2
Assay [6] concerns NC37 (lymphoma). The method, then: as §1, §2
The test system of assay [7] is OVCAR5 (ovarian cancer). As for the experimental part:
as §1, §2

On to `Cc1c(OCC(F)(F)F)ccnc1C[S+]([O-])c1nc2ccccc2[nH]1` (centres unmarked) [lansoprazole], for which the “reducing tumor cell growth” value in assay [1] (GDM-1 (FIG. 3J), 10 μM) is “effective in reducing tumor cell growth”; in assay [2] (RPMI8226 (FIG. 3G), 100 μM), “effective in reducing tumor cell growth”; in assay [3] (RPMI6666 (FIG. 3H), 100 μM) it was “effective in reducing tumor cell growth”; in assay [4] (SUDHL4 (FIG. 3F), 100 μM) it was “effective in reducing tumor cell growth”; in assay [5] (MC/CAR (FIG. 3K), 100 μM) it was “effective in reducing tumor cell growth”; in assay [6] (NC37 (FIG. 3I), 100 μM), “effective in reducing tumor cell growth”. Besides, in assay [7] (OVCAR5 (FIG. 3E), 100 μM), the “reducing tumor cell growth” value is listed as “effective in reducing tumor cell growth”. Also, the “tumor cell growth reduction” value in assay [1] (GDM-1 cells, lansoprazole 1-100 μM, 48 hours, MTT) is recorded as “significant tumor cell growth reduction”; in assay [2] (RPMI8226 cells, lansoprazole 1-100 μM, 48 hours, MTT), “significant tumor cell growth reduction”; in assay [3] (RPMI6666 cells, lansoprazole 1-100 μM, 48 hours, MTT), “significant tumor cell growth reduction”; in assay [4] (SUDHL4 cells, lansoprazole 1-100 μM, 48 hours, MTT), “significant tumor cell growth reduction”; in assay [5] (MC/CAR cells, lansoprazole 1-100 μM, 48 hours, MTT), “significant tumor cell growth reduction”; in assay [6] (NC37 cells, lansoprazole 1-100 μM, 48 hours, MTT), “significant tumor cell growth reduction”. For the same molecule, the “tumor cell growth reduction” value in assay [7] (OVCAR5 cells, lansoprazole 1-100 μM, 48 hours, MTT) is listed as “significant tumor cell growth reduction”.
